Measured values as given in paper PMC8815882, “Screening the pandemic response box identified benzimidazole carbamates, Olorofim and ravuconazole as promising drug candidates for the treatment of eumycetoma” (PLoS Neglected Tropical Diseases, 2022).
Where two headings read alike, the source gives them in different places.

System: M. mycetomatis genome strain MM55
Assay: CLSI M38-A2 based in vitro susceptibility screening (XTT or resazurin), growth at fixed concentration
Format: cell-based, Madurella mycetomatis
Details: Madurella mycetomatis; for Percent fungal survival at 100 µM: read-out: Percentage survival at 100um, 100 uM A (second replicate column)
[1] = mean of three replicates, read-out: Percentage survival at 25um, 25 uM mean
[2] = replicate A, read-out: Percentage survival at 25um, 25 um A
[3] = replicate B, read-out: Percentage survival at 25um, 25 uM B
[4] = replicate C, read-out: Percentage survival at 25um, 25 uM C
[5] = first replicate column, read-out: Percentage survival at 100um, 100 uM A
[6] = mean of three replicates, read-out: Percentage survival at 100um, 100 uM mean
[7] = second replicate column, read-out: Percentage survival at 100um, 100 uM A
[8] = third replicate column, read-out: Percentage survival at 100um, 100 uM A
[9] = mean of replicates, read-out: Percentage survival at 25um, 25 uM mean
[10] = mean of replicates, read-out: Percentage survival at 100um, 100 uM mean
[11] = replicate 1, read-out: Percentage survival at 100um, 100 uM A
[12] = replicate 2, read-out: Percentage survival at 100um, 100 uM A
[13] = replicate 3, read-out: Percentage survival at 100um, 100 uM A
[14] = replicate 1, read-out: Percentage survival at 100um, 100 uM A (first replicate column)
[15] = replicate 3, read-out: Percentage survival at 100um, 100 uM A (third replicate column)

Structure (SMILES): O=C(NC1CCCc2c1[nH]c1ccc(Cl)cc21)c1ccccn1 (stereo not shown) [MMV690621]
- activity at 25 µM [1]: 79%
- activity at 25 µM [2]: 75.2%
- activity at 25 µM [3]: 91.8%
- activity at 25 µM [4]: 70.2%
- activity at 100 µM [5]: -4.95%
- activity at 100 µM [6]: -0.446%
- activity at 100 µM [7]: -2.06%
- activity at 100 µM [8]: 5.67%

Structure (SMILES): COc1cccc(N2CCN(C3=Nc4c(F)cccc4[C@H](CC(=O)O)N3c3cc(C(F)(F)F)ccc3OC)CC2)c1 [MMV690653]
- activity at 25 µM [1]: 91%
- activity at 25 µM [2]: 89.7%
- activity at 25 µM [3]: 103%
- activity at 25 µM [4]: 80%
- activity at 100 µM [5]: 86.6%
- activity at 100 µM [6]: 86.8%
- activity at 100 µM [7]: 87.2%
- activity at 100 µM [8]: 86.5%

Structure (SMILES): O=C(NO)C1(CS(=O)(=O)c2ccc(Oc3ccc(Cl)cc3)cc2)CCOCC1 [MMV690706]
- activity at 25 µM (mean of replicates, MM55, read-out: Percentage survival at 25um, 25 uM mean): 82%
- activity at 25 µM (replicate A, MM55, read-out: Percentage survival at 25um, 25 um A): 85.7%
- activity at 25 µM (replicate B, MM55, read-out: Percentage survival at 25um, 25 uM B): 90.9%
- activity at 25 µM (replicate C, MM55, read-out: Percentage survival at 25um, 25 uM C): 69.4%
- activity at 100 µM (mean of replicates, MM55, read-out: Percentage survival at 100um, 100 uM mean): 68.5%
- activity at 100 µM (replicate 1, MM55, read-out: Percentage survival at 100um, 100 uM A): 72.4%
- activity at 100 µM (replicate 2, MM55, read-out: Percentage survival at 100um, 100 uM A): 62.8%
- activity at 100 µM (replicate 3, MM55, read-out: Percentage survival at 100um, 100 uM A): 70.2%

Structure (SMILES): CN(C)CCNC(=O)c1cccc2cccnc12 [MMV811071]
- activity at 25 µM [9]: 84.2%
- activity at 25 µM [2]: 90.3%
- activity at 25 µM [3]: 90.7%
- activity at 25 µM [4]: 71.6%
- activity at 100 µM [10]: 85.2%
- activity at 100 µM [11]: 79.4%
- activity at 100 µM [12]: 92.5%
- activity at 100 µM [13]: 83.6%

Structure (SMILES): CCc1ccc(C2CC(C(F)(F)F)n3ncc(C(=O)NCc4ccc(OC)cc4)c3N2)cc1 (stereo not shown) [MMV831201]
- activity at 25 µM [9]: 64.1%
- activity at 25 µM [2]: 65%
- activity at 25 µM [3]: 56.7%
- activity at 25 µM [4]: 70.7%
- activity at 100 µM [10]: 67.5%
- activity at 100 µM [11]: 62%
- activity at 100 µM [12]: 63%
- activity at 100 µM [13]: 77.5%

Structure (SMILES): Nc1cc(-c2nc3ccccc3[nH]2)n[nH]c1=O [MMV975972]
- activity at 25 µM [1]: 97%
- activity at 25 µM [2]: 99%
- activity at 25 µM [3]: 101%
- activity at 25 µM [4]: 90.7%
- activity at 100 µM [6]: 95.6%
- activity at 100 µM [14]: 105%
- Percent fungal survival at 100 µM (replicate 2): 90.7%
- activity at 100 µM [15]: 91.4%

Structure (SMILES): O=C1C=C(c2ccccc2)S(=O)(=O)c2ccccc21 [MMV1006203]
- activity at 25 µM [9]: 65%
- activity at 25 µM [2]: 59.6%
- activity at 25 µM [3]: 126%
- activity at 25 µM [4]: 9.78%
- activity at 100 µM [10]: 26.1%
- activity at 100 µM [14]: 63.3%
- Percent fungal survival at 100 µM (replicate 2): 4.04%
- activity at 100 µM [15]: 10.9%

Structure (SMILES): CC(C)Oc1cccc(NC(=O)c2ccccc2C(F)(F)F)c1 [MMV1009286]
- activity at 25 µM (mean, read-out: Percentage survival at 25um, 25 uM mean): 61%
- activity at 25 µM [2]: 87.9%
- activity at 25 µM [3]: 37.1%
- activity at 25 µM [4]: 58%
- activity at 100 µM (mean, read-out: Percentage survival at 100um, 100 uM mean): 39%
- activity at 100 µM (replicate (first column), read-out: Percentage survival at 100um, 100 uM A): 26.3%
- activity at 100 µM (replicate (second column), read-out: Percentage survival at 100um, 100 uM A): 52.4%
- activity at 100 µM (replicate (third column), read-out: Percentage survival at 100um, 100 uM A): 38.1%

Structure (SMILES): O=C(c1ccc(F)cc1)N1CCN2C(=O)c3ccccc3C12c1ccccc1 (stereo not shown) [MMV1165877]
- activity at 25 µM [1]: 89.2%
- activity at 25 µM [2]: 90%
- activity at 25 µM [3]: 95.6%
- activity at 25 µM [4]: 82.1%
- activity at 100 µM [6]: 76.1%
- activity at 100 µM [14]: 85.4%
- Percent fungal survival at 100 µM (replicate 2): 71.7%
- activity at 100 µM [15]: 71.2%

Structure (SMILES): CC(C)(C)c1ccc(Oc2ccc(N)cc2)cc1 [MMV1174026]
- activity at 25 µM [1]: 74%
- activity at 25 µM [2]: 108%
- activity at 25 µM [3]: 51.8%
- activity at 25 µM [4]: 62.2%
- activity at 100 µM [5]: -4.12%
- activity at 100 µM [6]: 2.41%
- activity at 100 µM [7]: 6.23%
- activity at 100 µM [8]: 5.13%

Structure (SMILES): CC(C)(C)c1cc(CCC(=O)N2CCC2)cc(C(C)(C)C)c1O [MMV1229204]
- activity at 25 µM (mean of three, M. mycetomatis MM55, read-out: Percentage survival at 25um, 25 uM mean): 77.7%
- activity at 25 µM (replicate A, M. mycetomatis MM55, read-out: Percentage survival at 25um, 25 um A): 91.6%
- activity at 25 µM (replicate B, M. mycetomatis MM55, read-out: Percentage survival at 25um, 25 uM B): 84.3%
- activity at 25 µM (replicate C, M. mycetomatis MM55, read-out: Percentage survival at 25um, 25 uM C): 57%
- activity at 100 µM (mean of three, M. mycetomatis MM55, read-out: Percentage survival at 100um, 100 uM mean): 62.1%
- activity at 100 µM (replicate 1, M. mycetomatis MM55, read-out: Percentage survival at 100um, 100 uM A (first replicate column)): 57.1%
- Percent fungal survival at 100 µM (replicate 2, M. mycetomatis MM55): 64%
- activity at 100 µM (replicate 3, M. mycetomatis MM55, read-out: Percentage survival at 100um, 100 uM A (third replicate column)): 65.1%
